Assay [1] concerns dengue virus type 2. In words: Functional assay to measure dose dependent changes in antiviral-drug inhibitory efficacy against Dengue virus type 2 New Guinea C in Vero E6 miRFP670 cells (cotreated with P-gp inhibitor, CP100356). Cells are treated with antiviral candidates that are serially diluted, following infection, cells are fixed. EC50 is reported via analysis of fluorescence intensity using high-content imager. The …. Type of assay: organism-based, Chlorocebus sabaeus, Vero C1008. Conditions: Dengue virus; for EC90: P-gp inhibitor CP100356.

Assay [2] has as its system Zika virus. In words: Functional CPE-based assay to measure dose dependent changes in antiviral-drug inhibitory efficacy against Zika virus MR766 in Vero E6 miRFP670 cells. Cells are treated with antiviral candidates that are serially diluted. EC50 is reported via analysis of MTS assay as a readout of CPE. The assay has been performed by KU Leuven. Conditions: for EC90: Zika virus, Maximum response 100 %. Type of assay: organism-based, Chlorocebus sabaeus, Vero C1008.

For assay [3], the system named is dengue virus type 2. Nature of the assay: Functional assay to measure dose dependent changes in antiviral-drug inhibitory efficacy against Dengue virus type 2 New Guinea C in Vero E6 miRFP670 cells. Cells are treated with antiviral candidates that are serially diluted, following infection, cells are fixed. EC50 is reported via analysis of fluorescence intensity using high-content imager. The assay has been performed by KU Leuven. It is filed as organism-based, Chlorocebus sabaeus.

Assay [4] concerns Zika virus. Nature of the assay: EC50 is reported via analysis of immunofluorescence staining. The assay has been performed by Icahn School of Medicine at Mount Sinai. Type of assay: functional, organism-based, Chlorocebus sabaeus, VeroE6/TMPRSS2. Conditions: Zika virus, VeroE6/TMPRSS2.
The test system of assay [5] is Zika virus. In words: Functional CPE-based assay to measure dose dependent changes in antiviral-drug inhibitory efficacy against Zika virus MR766 in Vero E6 miRFP670 cells (cotreated with P-gp inhibitor, CP100356). Cells are treated with antiviral candidates that are serially diluted. EC50 is reported via analysis of MTS assay as a readout of CPE. The assay has been performed by KU Leuven. Conditions: for EC90: Baseline response 0 %, Maximum response 100 %, P-gp inhibitor CP100356. Type of assay: organism-based, Chlorocebus sabaeus, Vero C1008.

Assay [6] concerns dengue virus type 2. In words: Functional immunofluorescence assay to measure dose dependent changes in antiviral-drug inhibitory efficacy against Dengue virus type 2 Thailand/16681/84 in Vero E6/TMPRSS2 cells (cotreated with P-gp inhibitor, Elacridar). Cells are treated with antiviral candidates that are serially diluted, following infection, cells are fixed. EC50 is reported via analysis of immunofluorescence staining. The assay has been performed by Icahn School of Medicine at Mount Sinai. It is filed as organism-based, Chlorocebus sabaeus, VeroE6/TMPRSS2. Conditions: Dengue virus.

For assay [7], the system named is Middle East respiratory syndrome-related coronavirus. Nature of the assay: microbe, parasite or virus in culture. It is filed as functional, organism-based, Chlorocebus sabaeus. Conditions: VeroE6/TMPRSS2.

“And” between values parts separate entries of the source, which are not always exact repeats. Identical values can stand only once.

Consider `O=C(Nc1ccc2c(c1)CNC2)c1cc(Cl)cc2[nH]ncc12`, for which the EC50 is more than 50 µM in assay [1] (Vero C1008); 34 µM and > 50 µM and 11.6 µM in assay [2] (vero c1008); more than 50 µM in assay [3] (Vero C1008); 12.7 µM in assay [4]; 4.57 µM in assay [5] (Zika virus, Vero C1008); 3.09 µM in assay [5] (vero c1008). Further, the EC50 in assay [6] (VeroE6/TMPRSS2) is more than 50 µM. In addition, the EC90 in assay [1] (Vero C1008, Maximum measured 2.237 %, Minimum measured -2.116 %, P-gp concentration 100 nM) is more than 50 µM; in assay [1] (Vero C1008, Maximum measured 108.122 %, Minimum measured 103.322 %, P-gp concentration 500 nM), more than 50 µM; in assay [1] (Vero C1008, Maximum measured 122.049 %, Minimum measured 106.43 %, P-gp concentration 500 nM), more than 50 µM; in assay [2] (Vero C1008, Baseline response 0 %, Hill slope 1.599, Maximum measured 39.692 %, Minimum measured -0.234 %, R squared 0.961) it was more than 50 µM; in assay [2] (Vero C1008, Baseline response 0 %, Hill slope 4.496, Maximum measured 86.5 %, Minimum measured 2.921 %, R squared 0.876) it was more than 50 µM; in assay [2] (Vero C1008, Baseline response 0 %, EC90 CI (lower) 23.876 uM, EC90 CI (upper) 46.036 uM, Hill slope 2.096, Maximum measured 107.811 %, Minimum measured 2.258 %, R squared 0.969), 33.1 µM. For the same compound, the EC90 in assay [3] (Vero C1008, Baseline response 0 %, Hill slope -0.996, Maximum measured 1.395 %, Maximum response 100 %, Minimum measured -3.373 %, R squared 0.016) is more than 50 µM; in assay [4] (Baseline response 0 %, Hill slope -1.535, Maximum measured 150.297 %, Maximum response 100 %, Minimum measured 39.396 %, P-gp concentration 2 uM, R squared 0.523, P-gp inhibitor Elacidar), more than 16.7 µM; in assay [5] (EC90 CI (lower) 3.61 uM, EC90 CI (upper) 15.25 uM, Hill slope 2.511, Maximum measured 126.79 %, Minimum measured 6.324 %, P-gp concentration 500 nM, R squared 0.896), 7.42 µM; in assay [5] (Zika virus, Vero C1008, EC90 CI (lower) 7.143 uM, EC90 CI (upper) 23.592 uM, Hill slope 2.106, Maximum measured 121.753 %, Minimum measured 3.066 %, P-gp concentration 100 nM, R squared 0.93), 13 µM; in assay [6] (VeroE6/TMPRSS2, Maximum measured 202.528 %, Minimum measured 74.934 %, P-gp concentration 2 uM, P-gp inhibitor Elacidar) it was more than 50 µM.

In assay [7], `C=CC[C@H](Nc1cccc(-c2nn[nH]n2)c1)c1cc(Cl)cc2[nH]ncc12` returned an EC50 of 0.988 µM and a concentration for an effect of 90% (EC90) of 2.78 µM.

One may read the EC50 as the concentration at which the effect is half-maximal. As a reminder, the EC90 is the point of the concentration-response curve where the effect stands at 90%.

Values taken from ChEMBL document CHEMBL5661943, “ASAP - In vitro antiviral effect” (2024).
